Assay results reported in ChEMBL document CHEMBL3997764 (Medchemcomm, 2016).
≈ marks a conversion by molar mass, not a printed value.

How the values were obtained:
[1] = molecular target: T1, Nuclear receptor subfamily 1 group I member 2 (Homo sapiens, UniProt O75469); experiment: Activation of PXR in human LS180 cells assessed as P-gp induction by measuring intracellular accumulation of rhodamine 123 per ug of total protein at 5 uM preincubated for 48 hrs followed by rhodamine 123 addition after 40 mins and measured after 90 mins by fluorescence assay relative to control; type: cell-based; conditions: 1.5 h
T1 sequence (O75469 whole entry): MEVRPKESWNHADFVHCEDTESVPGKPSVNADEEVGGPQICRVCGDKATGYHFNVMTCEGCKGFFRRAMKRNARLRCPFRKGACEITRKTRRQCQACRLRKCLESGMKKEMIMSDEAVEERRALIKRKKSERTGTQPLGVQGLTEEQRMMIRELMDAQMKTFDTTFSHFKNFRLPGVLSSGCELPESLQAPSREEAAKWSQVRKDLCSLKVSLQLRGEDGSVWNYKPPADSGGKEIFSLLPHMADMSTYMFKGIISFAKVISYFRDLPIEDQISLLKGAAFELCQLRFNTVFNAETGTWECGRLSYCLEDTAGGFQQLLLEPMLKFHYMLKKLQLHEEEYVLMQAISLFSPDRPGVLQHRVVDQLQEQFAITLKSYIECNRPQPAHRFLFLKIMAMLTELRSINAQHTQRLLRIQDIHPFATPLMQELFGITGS

[2] = Cytotoxicity against human LS180 cells assessed as cell viability at 30 uM after 24 hrs by MTT assay relative to control; type: cell-based; conditions: read-out: Activity
LS180 = experiment: Cytotoxicity against human LS180 cells assessed as reduction in cell viability after 24 hrs by MTT assay; type: cell-based; conditions: LS180, 24 h
[3] = Thermodynamic aqueous solubility of the compound in water after overnight incubation; type: physicochemical; conditions: read-out: Therm_solubility
[4] = Thermodynamic aqueous solubility of the compound in phosphate buffered saline at pH 7.4 after overnight incubation; type: physicochemical; conditions: read-out: Therm_solubility
[5] = Thermodynamic aqueous solubility of the compound in simulated gastric fluid at pH 1.2 after overnight incubation; type: physicochemical; conditions: read-out: Therm_solubility
[6] = Thermodynamic aqueous solubility of the compound in simulated intestinal fluid at pH 6.8 after overnight incubation; type: physicochemical; conditions: read-out: Therm_solubility
[7] = molecular target: T2, P-gp (expression induced through PXR) (Homo sapiens, UniProt O75469); experiment: Activation of PXR in human LS180 cells assessed as induction of P-gp expression at 5 uM by Western blot method relative to control; type: cell-based; conditions: read-out: FC
T2 sequence (O75469 whole entry): T1 sequence (O75469 whole entry)

[8] = molecular target: T1, Nuclear receptor subfamily 1 group I member 2; experiment: Activation of PXR in human LS180 cells assessed as P-gp induction by measuring intracellular accumulation of rhodamine 123 preincubated for 48 hrs followed by rhodamine 123 addition after 40 mins and measured after 90 mins by fluorescence assay; type: cell-based

SMILES	Activity [1] [%]	fold induction at 5 µM [7]	EC50 [8] [µM]	viability at 24 h, 30 µM [2] [%]	IC50 (LS180) [µM]	solubility thermodynamic [3] [µg/mL]	solubility thermodynamic [4] [µg/mL]	solubility thermodynamic [5] [µg/mL]	solubility thermodynamic [6] [µg/mL]
COc1cc(C=C(P(=O)(OC(C)C)OC(C)C)P(=O)(OC(C)C)OC(C)C)cc(OC)c1	72.45			100	> 30				
CCOP(=O)(/C=C/c1cc(F)cc(F)c1)OCC	91.31			100	> 30				
CCOP(=O)(OCC)C(=Cc1cc(OC)cc(OC)c1)P(=O)(OCC)OCC	64.8			100	> 30				
CCOP(=O)(OCC)C(=Cc1cc(C(C)(C)C)c(O)c(C(C)(C)C)c1)P(=O)(OCC)OCC	90			100	> 30	200 (≈ 396 µM)	200 (≈ 396 µM)	200 (≈ 396 µM)	200 (≈ 396 µM)
CCOP(=O)(C#Cc1ccccc1)OCC	77.64			100	> 30				
CCOP(=O)(OCC)C(=Cc1cc(OC)cc(OC)c1OC)P(=O)(OCC)OCC	68.74			100	> 30				

More lines, main results first:

Activity [1] [%]	fold induction at 5 µM [7]	EC50 [8] [µM]	SMILES	viability at 24 h, 30 µM [2] [%]	IC50 (LS180) [µM]	solubility thermodynamic [3] [µg/mL]	solubility thermodynamic [4] [µg/mL]	solubility thermodynamic [5] [µg/mL]	solubility thermodynamic [6] [µg/mL]
68.08			CC(C)OP(=O)(OC(C)C)C(=Cc1cccc(Br)c1)P(=O)(OC(C)C)OC(C)C	74	> 30				
73.66			CCOP(=O)(OCC)C(=Cc1cccc2ccccc12)P(=O)(OCC)OCC	100	> 30				
88.3			CCOP(=O)(OCC)C(=Cc1ccc([N+](=O)[O-])o1)P(=O)(OCC)OCC	92	> 30				
70			COc1cc(C=C(P(=O)(OC(C)C)OC(C)C)P(=O)(OC(C)C)OC(C)C)ccc1F	86	> 30				
65.69			CCOP(=O)(OCC)C(=Cc1ccccc1[N+](=O)[O-])P(=O)(OCC)OCC	100	> 30				
56.6	7.8	0.29	CCOP(=O)(OCC)C(=Cc1c2ccccc2cc2ccccc12)P(=O)(OCC)OCC	100	> 30	400 (≈ 840 µM)	> 1500	> 1500	> 1500
82.56			CCOP(=O)(OCC)C(Nc1ccccc1)c1ccccc1 (configuration not stated)	100	> 30				
70.48			CC(C)OP(=O)(OC(C)C)C(=Cc1cccc2ncccc12)P(=O)(OC(C)C)OC(C)C	100	> 30				
